According to patent publication US20140005163A1 (NOVARTIS AG, priority 2010, published 2014):

Experiments:
[1] = tested on: PKB Ser473 phosphorylation in Rat1-myr-HA-p110 beta cells; assay: Reverse protein array assay, PKB Ser473 phosphorylation in Rat1-myr-p110 beta cells; assay type: cell-based; conditions: 0.5 h, pAkt Ser473, 30 minutes incubation, read-out: p-PKB IC50
How it was run: (§1)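 Rat1 cells expressing myristoylated HA-tagged p110 alpha, beta or delta were plated for at least 20 h, then exposed to 8-step serial compound dilutions (0.2% DMSO final) for 30 min at 37 °C. Lysates were spotted at four dilutions on protein microarrays, and relative fluorescence intensity of phospho-Ser473 PKB was calculated.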

PI3K beta = biological target: T1, PI3K beta (Homo sapiens, UniProt P42338); assay: PI3K beta kinase assay (Kinase-Glo luminescence); assay type: biochemical
T1 construct: for the full-length p110-b subunit are generated and fused by overlapping PCR; p85(iSH2) fusion partner (see partner chain) (N); His tag (C); made in house; host or cells: baculovirus; Tn5 (Trichoplusia ni) or TiniPro insect cells
How it was run: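 Residual ATP after a 60 min room-temperature reaction is quantified by Kinase-Glo luminescence. Enzyme: 25 nM BV-949 (p85 iSH2–linker–full-length p110β); substrates 1 μM ATP, 10 μg/mL PI; buffer Tris pH 7.5, MgCl2, NaCl, CHAPS, DTT. Eight concentrations per compound, four-parameter logistic IC50.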

[2] = tested on: PKB Ser473 phosphorylation in Rat1-myr-HA-p110 delta cells; assay: Reverse protein array assay, PKB Ser473 phosphorylation in Rat1-myr-p110 delta cells; assay type: cell-based; conditions: read-out: p-PKB IC50
How it was run: as §1

PI3K alpha = biological target: T2, PI3K alpha (Homo sapiens, UniProt P42336); assay: PI3K alpha kinase assay (Kinase-Glo luminescence); assay type: biochemical
T2 construct: p85(iSH2) fusion partner (see partner chain) (N); His tag (C); made in house; host or cells: baculovirus; Tn5 (Trichoplusia ni) or TiniPro insect cells
How it was run: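 IC50 is taken from a four-parameter logistic fit of 8-point dilutions, with Kinase-Glo luminescence reporting residual ATP. Reactions ran 60 min at room temperature in TRIS pH 7.5 buffer with MgCl2, NaCl, CHAPS and DTT. Final levels were 10 nM enzyme, 1 μM ATP and 10 μg/mL PI.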

PI3K gamma = biological target: T3, PI3K gamma (Homo sapiens, UniProt P48736); assay: PI3K gamma kinase assay (Kinase-Glo luminescence); assay type: biochemical
T3 construct: His tag (C); made in house; host or cells: baculovirus (pVL1393); Tn5 or TiniPro insect cells; construct from Roger Williams lab, MRC LMB
Description: In a more preferred assay, the kinase reaction is performed in a final volume of 10 μL per well of a low volume non binding CORNING, 384 well black plate (Cat. No. #3676). The final concentrations of ATP and phosphatidyl inositol (PI) in the assay are 1 μM and 10 μg/mL respectively. The reaction is started by the addition of ATP.
The components of the assay are added per well as follows:
[…] in 90% DMSO per well, in columns 1-20, 8 concentrations (1/3 and 1/3.33 serial dilution step) in single. • Low control: […] of 90% DMSO in half the wells of columns 23-24 (0.45% in final). • High control: […] of reference compound (e.g. compound of Example 7 in WO 2006/122806) in the other half of columns 23-24 (2.5 μM in final). • Standard: […] of reference compound as just mentioned diluted as the test compounds in columns 21-22 • 20 mL ‘buffer’ are prepared per assay: • 200 μL of 1M TRIS HCl pH7.5 (10 mM in final) • 60 μL of 1M MgCl2 (3 mM in final) • 500 μL of 2M NaCl (50 mM in final) • 100 μL of 10% CHAPS (0.05% in final) • 200 μL of 100 mM DTT (1 mM in final) • 18.94 mL of nanopure water • 10 mL ‘PI’ are prepared per assay: • 200 μL of 1 mg/ml L-alpha-Phosphatidylinositol (Liver Bovine, Avanti Polar Lipids Cat. No. 840042C MW=909.12) prepared in 3% OctylGlucoside (10 μg/ml in final) • 9.8 mL of ‘buffer’ • 10 mL ‘ATP’ are prepared per assay: • 6.7 μL of 3 mM stock of ATP giving a final concentration of 1 μM per well • 10 mL of ‘buffer’ • 2.5 mL of each PI3K construct are prepared per assay in ‘PI’ with the following final concentration: • 10 nM PI3K alfa EMV B1075 • 25 nM beta EMV BV949 • 10 nM delta EMV BV1060 • 150 nM gamma EMV BV950 • 5 μL of ‘PI/PI3K’ are added per well. • 5 μl ‘ATP’ are added per well to start the reaction. • The plates are then incubated at room temperature for 60 minutes (alfa, beta, delta) or 120 minutes (gamma). • The reaction is terminated by the addition of 10 μL Kinase-Glo (Promega Cat. No. #6714). • The assay plates are read after 10 minutes in Synergy 2 reader (BioTek, Vermont USA) with an integration time of 100 milliseconds and sensitivity set to 191. • Output: The High control is around 60'000 counts and the Low control is 30'000 or lower • This luminescence assay gives a useful Z′ ratio between 0.4 and 0.7
IC50 is determined by a four parameter curve fitting routine that comes along with “excel fit”. […] Alternatively, IC50 values are calculated using idbsXLfit model 204, which is a 4 parameter logistic model.

[3] = tested on: PKB Ser473 phosphorylation in Rat1-myr-HA-p110 alpha cells; assay: Reverse protein array assay, PKB Ser473 phosphorylation in Rat1-myr-p110 alpha cells; assay type: cell-based; conditions: 0.5 h, pAkt Ser473, 30 minutes compound incubation, read-out: p-PKB IC50
How it was run: as §1

PI3K delta = biological target: T4, PI3K delta (Homo sapiens, UniProt O00329); assay: PI3K delta kinase assay (Kinase-Glo luminescence); assay type: biochemical
T4 construct: for the full-length p110-d subunit are generated and fused by overlapping PCR; p85(iSH2) fusion partner (see partner chain) (N); His tag (C); made in house; host or cells: baculovirus; Tn5 (Trichoplusia ni) or TiniPro insect cells
How it was run: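 ATP depletion was measured by Kinase-Glo luminescence after a 60-minute room-temperature reaction containing 1 μM ATP, 10 μg/mL PI and 10 nM His-tagged p85(iSH2)-linker-p110δ (BV-1060). Buffer: Tris pH 7.5, 3 mM MgCl2, 50 mM NaCl, 0.05% CHAPS, 1 mM DTT. IC50 values came from four-parameter fits over eight concentrations.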

mTOR = biological target: T5, mTOR (Homo sapiens, UniProt P42345); assay: Biochemical assay for m-TOR by TR-FRET; conditions: 8 μM ATP, 400 nM GFP-4EBP1, 0.5 nM mTOR
T5 construct: purchased Invitrogen Corporation (Carlsbad/CA, USA) PV4753
How it was run: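 TR-FRET detection of pThr46 on GFP-4EBP1 (400 nM final) using Tb3+-labelled antibody (0.5 nM), added with EDTA to stop reactions. Reactions ran at rt with 0.5 nM mTOR and 8 μM ATP (final) in HEPES pH 7.5 buffer containing 10 mM MnCl2.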

[4] = tested on: S6 Ribosomal Protein phosphorylation Ser235/236 in TSC1 null mouse embryo fibroblast (MEF) cells; assay: Reverse protein array assay, S6 Ribosomal Protein phosphorylation Ser235/236 in TSC1 null MEF cells; assay type: cell-based; conditions: 1 h, pS6 ribosomal protein Ser235/236, 60 minutes incubation, read-out: p-S6 IC50
How it was run: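 TSC1−/− MEFs, seeded and held ≥20 h at 37 °C/5% CO2, were exposed to 8-step serial compound dilutions (0.02% DMSO final; DMSO vehicle control) for 60 min at 37 °C. Cells were then lysed on ice for 10 min and lysates spotted onto reverse protein array chips.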

T1 sequence (P42338 with tags, fused parts or gaps limits assumed): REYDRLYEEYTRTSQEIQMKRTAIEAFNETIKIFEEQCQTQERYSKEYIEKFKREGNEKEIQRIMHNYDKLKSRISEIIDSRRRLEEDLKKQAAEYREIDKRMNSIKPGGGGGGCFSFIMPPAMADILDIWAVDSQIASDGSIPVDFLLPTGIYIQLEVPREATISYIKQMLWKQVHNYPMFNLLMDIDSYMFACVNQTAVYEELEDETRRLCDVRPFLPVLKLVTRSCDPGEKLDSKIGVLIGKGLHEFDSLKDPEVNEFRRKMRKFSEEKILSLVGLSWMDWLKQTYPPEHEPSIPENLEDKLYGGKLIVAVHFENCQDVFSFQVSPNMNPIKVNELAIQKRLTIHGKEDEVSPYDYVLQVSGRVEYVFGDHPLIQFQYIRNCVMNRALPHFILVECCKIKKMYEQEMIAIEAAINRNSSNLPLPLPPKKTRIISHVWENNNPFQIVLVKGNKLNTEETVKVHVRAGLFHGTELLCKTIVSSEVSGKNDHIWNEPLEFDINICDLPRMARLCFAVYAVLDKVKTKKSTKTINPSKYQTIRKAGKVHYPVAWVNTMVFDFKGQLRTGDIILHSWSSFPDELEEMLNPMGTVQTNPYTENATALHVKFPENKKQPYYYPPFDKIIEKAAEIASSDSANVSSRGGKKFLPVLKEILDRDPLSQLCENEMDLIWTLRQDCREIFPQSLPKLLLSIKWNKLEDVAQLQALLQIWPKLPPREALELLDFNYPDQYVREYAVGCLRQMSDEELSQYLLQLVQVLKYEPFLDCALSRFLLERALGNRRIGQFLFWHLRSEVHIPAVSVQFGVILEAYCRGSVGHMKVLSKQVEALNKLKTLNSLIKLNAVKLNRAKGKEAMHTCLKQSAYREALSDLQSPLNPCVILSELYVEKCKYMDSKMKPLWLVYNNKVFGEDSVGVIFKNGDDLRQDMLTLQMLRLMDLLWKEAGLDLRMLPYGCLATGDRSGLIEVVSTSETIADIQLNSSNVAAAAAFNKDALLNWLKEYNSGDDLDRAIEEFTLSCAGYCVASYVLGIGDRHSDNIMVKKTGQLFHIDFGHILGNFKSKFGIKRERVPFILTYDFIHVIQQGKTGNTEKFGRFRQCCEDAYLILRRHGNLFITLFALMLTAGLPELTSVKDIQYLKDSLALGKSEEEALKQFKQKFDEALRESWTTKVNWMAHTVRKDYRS
T3 sequence (P48736 144-1102 limits assumed): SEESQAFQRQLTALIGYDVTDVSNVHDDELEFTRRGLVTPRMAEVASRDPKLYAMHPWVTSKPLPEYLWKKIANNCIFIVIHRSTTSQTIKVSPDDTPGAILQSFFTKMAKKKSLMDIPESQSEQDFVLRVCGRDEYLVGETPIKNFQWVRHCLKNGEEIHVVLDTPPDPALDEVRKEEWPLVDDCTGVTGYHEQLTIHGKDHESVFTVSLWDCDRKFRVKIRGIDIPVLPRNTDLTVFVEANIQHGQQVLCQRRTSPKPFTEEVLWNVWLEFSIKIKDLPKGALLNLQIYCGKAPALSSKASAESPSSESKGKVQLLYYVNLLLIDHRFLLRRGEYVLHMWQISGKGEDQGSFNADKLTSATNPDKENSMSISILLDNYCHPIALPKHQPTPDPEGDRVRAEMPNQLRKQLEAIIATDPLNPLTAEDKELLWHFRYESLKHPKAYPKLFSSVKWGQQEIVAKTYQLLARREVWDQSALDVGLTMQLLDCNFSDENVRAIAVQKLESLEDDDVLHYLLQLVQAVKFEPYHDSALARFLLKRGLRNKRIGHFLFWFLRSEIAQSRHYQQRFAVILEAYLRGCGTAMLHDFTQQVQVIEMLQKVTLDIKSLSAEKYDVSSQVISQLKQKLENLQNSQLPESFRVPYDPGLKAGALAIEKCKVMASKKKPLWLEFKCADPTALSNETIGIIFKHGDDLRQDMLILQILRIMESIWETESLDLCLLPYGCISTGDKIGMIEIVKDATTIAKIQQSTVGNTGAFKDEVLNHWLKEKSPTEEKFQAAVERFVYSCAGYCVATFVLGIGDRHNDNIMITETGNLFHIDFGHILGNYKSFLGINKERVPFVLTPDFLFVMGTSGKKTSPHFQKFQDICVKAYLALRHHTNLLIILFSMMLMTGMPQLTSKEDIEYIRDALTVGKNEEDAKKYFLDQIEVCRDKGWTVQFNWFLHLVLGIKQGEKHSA
T5 sequence (P42345 1360-2549 limits assumed): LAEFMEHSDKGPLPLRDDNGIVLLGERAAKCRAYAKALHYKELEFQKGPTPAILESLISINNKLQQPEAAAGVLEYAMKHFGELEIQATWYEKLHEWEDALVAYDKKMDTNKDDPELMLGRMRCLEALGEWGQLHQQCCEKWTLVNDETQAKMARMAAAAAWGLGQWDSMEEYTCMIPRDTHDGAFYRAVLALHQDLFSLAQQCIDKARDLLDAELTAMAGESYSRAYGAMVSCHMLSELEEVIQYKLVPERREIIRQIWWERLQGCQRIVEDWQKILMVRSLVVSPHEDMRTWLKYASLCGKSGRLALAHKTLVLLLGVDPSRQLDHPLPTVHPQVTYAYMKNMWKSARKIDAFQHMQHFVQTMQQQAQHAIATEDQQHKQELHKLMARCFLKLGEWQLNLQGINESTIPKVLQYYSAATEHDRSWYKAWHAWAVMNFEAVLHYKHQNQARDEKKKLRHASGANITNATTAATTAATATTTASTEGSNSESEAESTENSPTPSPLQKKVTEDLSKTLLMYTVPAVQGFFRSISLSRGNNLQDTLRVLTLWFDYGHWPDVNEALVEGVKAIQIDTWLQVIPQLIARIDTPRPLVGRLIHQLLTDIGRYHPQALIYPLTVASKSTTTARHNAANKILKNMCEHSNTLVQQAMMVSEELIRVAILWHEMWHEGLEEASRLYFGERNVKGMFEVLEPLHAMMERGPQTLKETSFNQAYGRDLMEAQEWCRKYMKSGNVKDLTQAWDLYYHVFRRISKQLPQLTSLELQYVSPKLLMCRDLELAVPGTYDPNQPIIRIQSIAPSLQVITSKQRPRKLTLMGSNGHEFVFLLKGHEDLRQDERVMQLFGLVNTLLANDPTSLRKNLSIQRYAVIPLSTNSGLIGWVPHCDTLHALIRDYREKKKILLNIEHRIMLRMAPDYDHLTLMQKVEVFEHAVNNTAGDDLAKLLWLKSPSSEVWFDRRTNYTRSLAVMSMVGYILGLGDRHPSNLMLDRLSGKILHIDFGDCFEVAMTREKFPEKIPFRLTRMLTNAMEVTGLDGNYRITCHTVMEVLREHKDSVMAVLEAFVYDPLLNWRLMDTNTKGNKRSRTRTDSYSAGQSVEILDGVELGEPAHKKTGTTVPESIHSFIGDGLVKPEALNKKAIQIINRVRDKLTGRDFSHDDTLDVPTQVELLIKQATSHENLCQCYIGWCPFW
T4 sequence (O00329 with tags, fused parts or gaps limits assumed): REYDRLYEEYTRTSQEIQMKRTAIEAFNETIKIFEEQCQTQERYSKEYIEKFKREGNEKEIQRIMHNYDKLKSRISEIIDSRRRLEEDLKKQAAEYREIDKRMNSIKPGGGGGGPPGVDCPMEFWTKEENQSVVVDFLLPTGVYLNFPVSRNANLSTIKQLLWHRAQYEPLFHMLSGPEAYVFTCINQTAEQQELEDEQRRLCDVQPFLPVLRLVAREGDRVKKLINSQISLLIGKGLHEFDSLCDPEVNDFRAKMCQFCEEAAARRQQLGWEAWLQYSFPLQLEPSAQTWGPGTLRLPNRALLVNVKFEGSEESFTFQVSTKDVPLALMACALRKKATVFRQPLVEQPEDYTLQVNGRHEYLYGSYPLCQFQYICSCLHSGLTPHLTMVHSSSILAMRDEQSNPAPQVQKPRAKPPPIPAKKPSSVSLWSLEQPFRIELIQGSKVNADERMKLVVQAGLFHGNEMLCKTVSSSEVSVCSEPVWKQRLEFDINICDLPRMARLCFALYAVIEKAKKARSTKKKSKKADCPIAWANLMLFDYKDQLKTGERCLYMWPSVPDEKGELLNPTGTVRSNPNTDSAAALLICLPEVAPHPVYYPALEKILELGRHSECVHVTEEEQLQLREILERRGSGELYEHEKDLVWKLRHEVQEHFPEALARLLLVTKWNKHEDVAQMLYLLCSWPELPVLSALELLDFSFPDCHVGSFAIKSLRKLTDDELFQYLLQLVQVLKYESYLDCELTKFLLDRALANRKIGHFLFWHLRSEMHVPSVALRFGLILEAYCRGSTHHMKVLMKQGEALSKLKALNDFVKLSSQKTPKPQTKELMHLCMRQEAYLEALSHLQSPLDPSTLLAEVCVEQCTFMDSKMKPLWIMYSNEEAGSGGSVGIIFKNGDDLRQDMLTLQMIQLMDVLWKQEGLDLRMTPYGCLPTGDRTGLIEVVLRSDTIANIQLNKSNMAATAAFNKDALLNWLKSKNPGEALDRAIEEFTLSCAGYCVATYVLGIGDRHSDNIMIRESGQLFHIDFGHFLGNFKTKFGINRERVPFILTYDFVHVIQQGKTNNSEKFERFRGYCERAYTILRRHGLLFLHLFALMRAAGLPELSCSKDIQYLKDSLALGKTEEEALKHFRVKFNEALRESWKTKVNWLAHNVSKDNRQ

With `CCn1nccc1-n1c(=O)n(C)c2cnc3ccc(-c4ccc(OC)c(OC)c4)cc3c21` [Example 1.2, 8-(3,4-Dimethoxy-phenyl)-1-(2-ethyl-2H-pyrazol-3-yl)-3-methyl-1,3-dihydro-imidazo[4,5-c]quinolin-2-one] the IC50 [1] was 0.021 µM, the IC50 (PI3K beta) was 0.28 µM and the IC50 [2] was 0.066 µM. The IC50 (PI3K alpha) was 0.05 µM, the IC50 (PI3K gamma) was 0.216 µM and the IC50 [3] was 0.033 µM. For the same compound, the IC50 (PI3K delta) was 0.061 µM and the IC50 (mTOR) was 0.155 µM.

`COc1ccc(-c2ccc3ncc4c(c3c2)n(-c2cn(C)nc2Cl)c(=O)n4C)cc1OC` [Example 1.10, 1-(3-Chloro-1-methyl-1H-pyrazol-4-yl)-8-(3,4-dimethoxy-phenyl)-3-methyl-1,3-dihydro-imidazo[4,5-c]quinolin-2-one] was tested, and the IC50 [1] was < 0.005 µM, the IC50 (PI3K beta) was 0.006 µM and the IC50 [2] was 0.005 µM. It also gave an IC50 (PI3K alpha) of 0.009 µM, an IC50 [4] of 0.001 µM and an IC50 (PI3K gamma) of 0.238 µM. The IC50 [3] was < 0.005 µM and the IC50 (PI3K delta) was 0.01 µM.

`CCn1nccc1-n1c(=O)n(C)c2cnc3ccc(-c4ccc(OC)nc4)cc3c21` [Example 2.6, 1-(2-Ethyl-2H-pyrazol-3-yl)-8-(6-methoxy-pyridin-3-yl)-3-methyl-1,3-dihydro-imidazo[4,5-c]quinolin-2-one] was tested, and the IC50 [1] was 0.136 µM, the IC50 (PI3K beta) was 0.612 µM and the IC50 [2] was 0.219 µM. For the same compound, the IC50 (PI3K alpha) was 0.146 µM, the IC50 (PI3K gamma) was 0.788 µM and the IC50 [3] was 0.141 µM. The IC50 (PI3K delta) was 0.085 µM and the IC50 (mTOR) was 0.162 µM.

With `CCOc1ccc(-c2ccc3ncc4c(c3c2)n(-c2cc(C(F)(F)F)nn2C)c(=O)n4C)cn1` [Example 3.2, 8-(6-Ethoxy-pyridin-3-yl)-3-methyl-1-(2-methyl-5-trifluoromethyl-2H-pyrazol-3-yl)-1,3-dihydro-imidazo[4,5-c]quinolin-2-one] the IC50 [1] was 0.138 µM, the IC50 [2] was 0.473 µM and the IC50 (PI3K alpha) was 0.078 µM. For the same compound, the IC50 (PI3K gamma) was 0.559 µM, the IC50 [3] was 0.12 µM and the IC50 (PI3K delta) was 0.394 µM.

In the case of `COc1ncc(-c2ccc3ncc4c(c3c2)n(-c2cn(C)nc2C)c(=O)n4C)cc1F` [Example 13, 1-(1,3-Dimethyl-1H-pyrazol-4-yl)-8-(5-fluoro-6-methoxy-pyridin-3-yl)-3-methyl-1,3-dihydro-imidazo[4,5-c]quinolin-2-one], the IC50 (PI3K beta) is reported as 0.025 µM, the IC50 (PI3K alpha) is reported as 0.012 µM and the IC50 [4] is reported as 0.01 µM. The IC50 (PI3K gamma) was 0.087 µM, the IC50 (PI3K delta) was 0.015 µM and the IC50 (mTOR) was 0.063 µM.

Work on `Cc1nn(C)cc1-n1c(=O)n(C)c2cnc3ccc(-c4ccc(NCCO)nc4)cc3c21` [Example 21.2] yielded an IC50 [1] of 0.273 µM, an IC50 (PI3K beta) of 0.205 µM and an IC50 [2] of 0.602 µM. For the same compound, the IC50 (PI3K alpha) was 0.032 µM, the IC50 [4] was 0.666 µM and the IC50 (PI3K gamma) was 0.391 µM. For the same compound, the IC50 [3] was 0.375 µM and the IC50 (PI3K delta) was 0.018 µM.

Work on `COc1cc(-c2ccc3ncc4c(c3c2)n(-c2c(C)nn(C)c2C)c(=O)n4C)ccc1O` [Example 31, 8-(4-Hydroxy-3-methoxy-phenyl)-3-methyl-1-(1,3,5-trimethyl-1H-pyrazol-4-yl)-1,3-dihydro-imidazo[4,5-c]quinolin-2-one] yielded an IC50 [1] of 0.049 µM, an IC50 (PI3K beta) of 0.067 µM and an IC50 [2] of 0.064 µM. For the same compound, the IC50 (PI3K alpha) was 0.029 µM, the IC50 (PI3K gamma) was 0.118 µM and the IC50 [3] was 0.029 µM. The IC50 (PI3K delta) was 0.03 µM and the IC50 (mTOR) was 0.177 µM.

`Cc1nn(C)cc1-n1c(=O)n(C)c2cnc3ccc(-c4cc(O)cc(F)c4)cc3c21` [Example 33, 1-(1,3-Dimethyl-1H-pyrazol-4-yl)-8-(3-fluoro-5-hydroxy-phenyl)-3-methyl-1,3-dihydro-imidazo[4,5-c]quinolin-2-one] was tested, and the IC50 [1] was 0.214 µM, the IC50 (PI3K beta) was 0.046 µM and the IC50 [2] was 0.399 µM. For the same compound, the IC50 (PI3K alpha) was 0.009 µM, the IC50 (PI3K gamma) was 0.128 µM and the IC50 [3] was 0.162 µM. The IC50 (PI3K delta) was 0.016 µM and the IC50 (mTOR) was 0.11 µM.

`COc1ccc(-c2ccc3ncc4c(c3c2)n(-c2cn(CC(=O)O)nc2C)c(=O)n4C)cn1` [Example 101, {4-[8-(6-Methoxy-pyridin-3-yl)-3-methyl-2-oxo-2,3-dihydro-imidazo[4,5-c]quinolin-1-yl]-3-methyl-pyrazol-1-yl}-acetic acid] showed an IC50 (PI3K beta) of 0.023 µM, an IC50 (PI3K alpha) of 0.005 µM and an IC50 (PI3K gamma) of 0.138 µM. For the same compound, the IC50 (PI3K delta) was 0.015 µM and the IC50 (mTOR) was < 0.003 µM.

`Cc1nn(C)cc1-n1c(=O)n(C)c2cnc3ccc(-c4cncc(NS(C)(=O)=O)c4)cc3c21` [Example 120, N-{5-[1-(1,3-Dimethyl-1H-pyrazol-4-yl)-3-methyl-2-oxo-2,3-dihydro-1H-imidazo[4,5-c]quinolin-8-yl]-pyridin-3-yl}-methanesulfonamide] showed an IC50 (PI3K beta) of 0.018 µM, an IC50 (PI3K alpha) of 0.011 µM and an IC50 [4] of 0.355 µM. It also gave an IC50 (PI3K gamma) of 0.116 µM, an IC50 (PI3K delta) of 0.01 µM and an IC50 (mTOR) of 0.005 µM.

With `COc1ncc(-c2ccc3ncc4c(c3c2)n(-c2cn(C)nc2C)c(=O)n4C)cc1C(=O)O` [Example 124, 5-[1-(1,3-Dimethyl-1H-pyrazol-4-yl)-3-methyl-2-oxo-2,3-dihydro-1H-imidazo[4,5-c]quinolin-8-yl]-2-methoxy-nicotinic acid] the IC50 (PI3K beta) was 0.083 µM, the IC50 (PI3K alpha) was 0.037 µM and the IC50 (PI3K gamma) was 0.118 µM. The IC50 (PI3K delta) was 0.02 µM and the IC50 (mTOR) was 0.053 µM.
